Laboratory results: patent US20100041089A1, “IMPROVED METHOD FOR DETECTING CHEMICAL […]” (priority 2006, published 2010)

Test system: yeast genes (expressed mRNA)
Test: DNA chip measurement of expressed mRNA of yeast genes after culture with a toxic chemical substance
Type: cell-based, Saccharomyces cerevisiae S288C
Conditions: for The level of expressed mRNA in the presence of chemical substance/The level of expressed mRNA in the absence of chemical substance: cultured two hours with substance; for level of expressed mRNA in the presence of chemical substance / level in the absence of chemical substance: cultured two hours with the chemical substance
Method in brief: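 Fluorescence ratio, treated over untreated, read by chip scanner; ratio of two or more counted significant. Cells: S288C yeast, YPD, 25° C, chemical added at log phase for 2 h at growth-inhibiting, sublethal level. Cy3/Cy5-labeled cDNA from oligo-dT-purified mRNA.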

## Cl[C@H]1[C@H](Cl)[C@@H](Cl)[C@@H](Cl)[C@H](Cl)[C@H]1Cl [(7), γ-Hexachlorocyclohexane]
Yeast gene YJL151C
  The level of expressed mRNA in the presence of chemical substance/The level of expressed mRNA in the absence of chemical substance: 1.4
Yeast gene YJL152W
  The level of expressed mRNA in the presence of chemical substance/The level of expressed mRNA in the absence of chemical substance: 1.2
Yeast gene YJL161W
  The level of expressed mRNA in the presence of chemical substance/The level of expressed mRNA in the absence of chemical substance: 3.6
Yeast gene YJL171C
  The level of expressed mRNA in the presence of chemical substance/The level of expressed mRNA in the absence of chemical substance: 1.4
Yeast gene YJR008W
  The level of expressed mRNA in the presence of chemical substance/The level of expressed mRNA in the absence of chemical substance: 2.9
Yeast gene YJR030C
  level of expressed mRNA in the presence of chemical substance / level in the absence of chemical substance: 0.7
Yeast gene YJR054W
  The level of expressed mRNA in the presence of chemical substance/The level of expressed mRNA in the absence of chemical substance: 0.9
Yeast gene YKL051W
  level of expressed mRNA in the presence of chemical substance / level in the absence of chemical substance: 0.6
Yeast gene YKL071W
  The level of expressed mRNA in the presence of chemical substance/The level of expressed mRNA in the absence of chemical substance: 3.7
Yeast gene YKL086W
  The level of expressed mRNA in the presence of chemical substance/The level of expressed mRNA in the absence of chemical substance: 0.7
Yeast gene YKL097C
  level of expressed mRNA in the presence of chemical substance / level in the absence of chemical substance: 0.8
Yeast gene YKL100C
  level of expressed mRNA in the presence of chemical substance / level in the absence of chemical substance: 1.2
Yeast gene YKL151C
  The level of expressed mRNA in the presence of chemical substance/The level of expressed mRNA in the absence of chemical substance: 5.6
Yeast gene YKL153W
  The level of expressed mRNA in the presence of chemical substance/The level of expressed mRNA in the absence of chemical substance: 1.1
Yeast gene YKL195W
  The level of expressed mRNA in the presence of chemical substance/The level of expressed mRNA in the absence of chemical substance: 2.1
Yeast gene YKR040C
  level of expressed mRNA in the presence of chemical substance / level in the absence of chemical substance: 0.9
Yeast gene YKR091W
  The level of expressed mRNA in the presence of chemical substance/The level of expressed mRNA in the absence of chemical substance: 1.3
Yeast gene YLR054C
  The level of expressed mRNA in the presence of chemical substance/The level of expressed mRNA in the absence of chemical substance: 1.1
Yeast gene YLR149C
  The level of expressed mRNA in the presence of chemical substance/The level of expressed mRNA in the absence of chemical substance: 1.6
Yeast gene YLR152C
  The level of expressed mRNA in the presence of chemical substance/The level of expressed mRNA in the absence of chemical substance: 1.4
Yeast gene YLR194C
  The level of expressed mRNA in the presence of chemical substance/The level of expressed mRNA in the absence of chemical substance: 1.0
Yeast gene YLR226W
  level of expressed mRNA in the presence of chemical substance / level in the absence of chemical substance: 1.9
Yeast gene YLR324W
  The level of expressed mRNA in the presence of chemical substance/The level of expressed mRNA in the absence of chemical substance: 1.0
Yeast gene YLR338W
  level of expressed mRNA in the presence of chemical substance / level in the absence of chemical substance: 0.9
Yeast gene YLR350W
  The level of expressed mRNA in the presence of chemical substance/The level of expressed mRNA in the absence of chemical substance: 1.2
Yeast gene YLR387C
  The level of expressed mRNA in the presence of chemical substance/The level of expressed mRNA in the absence of chemical substance: 1.1
Yeast gene YLR392C
  level of expressed mRNA in the presence of chemical substance / level in the absence of chemical substance: 1.0
Yeast gene YLR415C
  level of expressed mRNA in the presence of chemical substance / level in the absence of chemical substance: 1.2
Yeast gene YLR427W
  level of expressed mRNA in the presence of chemical substance / level in the absence of chemical substance: 1.2
Yeast gene YLR460C
  The level of expressed mRNA in the presence of chemical substance/The level of expressed mRNA in the absence of chemical substance: 1.1
Yeast gene YML013W
  level of expressed mRNA in the presence of chemical substance / level in the absence of chemical substance: 1.3
Yeast gene YML029W
  level of expressed mRNA in the presence of chemical substance / level in the absence of chemical substance: 1.1
Yeast gene YML041C
  level of expressed mRNA in the presence of chemical substance / level in the absence of chemical substance: 1.4
Yeast gene YML079W
  level of expressed mRNA in the presence of chemical substance / level in the absence of chemical substance: 1.2
Yeast gene YML117W
  The level of expressed mRNA in the presence of chemical substance/The level of expressed mRNA in the absence of chemical substance: 0.7
Yeast gene YMR009W
  The level of expressed mRNA in the presence of chemical substance/The level of expressed mRNA in the absence of chemical substance: 1.9
Yeast gene YMR067C
  The level of expressed mRNA in the presence of chemical substance/The level of expressed mRNA in the absence of chemical substance: 1.2
Yeast gene YMR068W
  level of expressed mRNA in the presence of chemical substance / level in the absence of chemical substance: 1.5
Yeast gene YMR071C
  level of expressed mRNA in the presence of chemical substance / level in the absence of chemical substance: 1.8
Yeast gene YMR090W
  The level of expressed mRNA in the presence of chemical substance/The level of expressed mRNA in the absence of chemical substance: 2.7
Yeast gene YMR095C
  The level of expressed mRNA in the presence of chemical substance/The level of expressed mRNA in the absence of chemical substance: 1.2
Yeast gene YMR097C
  The level of expressed mRNA in the presence of chemical substance/The level of expressed mRNA in the absence of chemical substance: 1.5
Yeast gene YMR102C
  The level of expressed mRNA in the presence of chemical substance/The level of expressed mRNA in the absence of chemical substance: 1.8
Yeast gene YMR107W
  The level of expressed mRNA in the presence of chemical substance/The level of expressed mRNA in the absence of chemical substance: 1.2
Yeast gene YMR160W
  level of expressed mRNA in the presence of chemical substance / level in the absence of chemical substance: 1.0
Yeast gene YMR180C
  The level of expressed mRNA in the presence of chemical substance/The level of expressed mRNA in the absence of chemical substance: 1.7
Yeast gene YMR184W
  The level of expressed mRNA in the presence of chemical substance/The level of expressed mRNA in the absence of chemical substance: 1.6
Yeast gene YMR191W
  The level of expressed mRNA in the presence of chemical substance/The level of expressed mRNA in the absence of chemical substance: 2.0
Yeast gene YMR295C
  The level of expressed mRNA in the presence of chemical substance/The level of expressed mRNA in the absence of chemical substance: 1.3
Yeast gene YMR316W
  The level of expressed mRNA in the presence of chemical substance/The level of expressed mRNA in the absence of chemical substance: 2.0
Yeast gene YNL026W
  level of expressed mRNA in the presence of chemical substance / level in the absence of chemical substance: 1.5
Yeast gene YNL044W
  The level of expressed mRNA in the presence of chemical substance/The level of expressed mRNA in the absence of chemical substance: 0.9
